In ChEMBL document CHEMBL3885881, “DrugMatrix”:

Organism: Rattus norvegicus
Test: DrugMatrix - Regimen: Daily Repeat
Type: toxicity, organism-based, Sprague-Dawley
Set-up: regimen Daily Repeat, gender Male, age 6-8 weeks
Conditions: in vivo, sc, route subcutaneous, […]; for ABSOLUTE BASOPHIL / ABSOLUTE EOSINOPHIL / ABSOLUTE LYMPHOCYTE / ABSOLUTE MONOCYTE / ABSOLUTE SEGMENTED NEUTROPHIL / BASOPHIL / EOSINOPHIL / ERYTHROCYTE COUNT / HEMATOCRIT / HEMOGLOBIN / LEUKOCYTE COUNT / LYMPHOCYTE / MEAN CORPUSCULAR HEMOGLOBIN / MEAN CORPUSCULAR HEMOGLOBIN CONCENTRATION / MEAN CORPUSCULAR VOLUME / MONOCYTE / NEUTROPHIL / NUCLEATED RED BLOOD CELLS / PLATELET COUNT: tissue Blood; for ALANINE AMINOTRANSFERASE / ALBUMIN / ALKALINE PHOSPHATASE / ASPARTATE AMINOTRANSFERASE / BLOOD UREA NITROGEN / CARBON DIOXIDE / CHLORIDE / CHOLESTEROL / CREATINE PHOSPHOKINASE / CREATININE / GLUCOSE / LACTATE DEHYDROGENASE / LIPASE / PHOSPHORUS / POTASSIUM / SODIUM / TOTAL BILIRUBIN / TOTAL PROTEIN / URIC ACID: tissue Plasma
[1] = 150 mg/kg, 120 h, dose level High, time 5 day
[2] = 72 h, dose 2.8 mg/Kg, dose level Low, time 3 day
[3] = 120 h, dose 2.8 mg/Kg, dose level Low, time 5 day

CN(Cc1ccc(C(C)(C)C)cc1)Cc1cccc2ccccc12 [BUTENAFINE]
ABSOLUTE BASOPHIL [1]: 0 CELLS/uL | ABSOLUTE EOSINOPHIL [1]: 60.33 CELLS/uL | ABSOLUTE LYMPHOCYTE [1]: 7925.67 CELLS/uL | ABSOLUTE MONOCYTE [1]: 152 CELLS/uL | ABSOLUTE SEGMENTED NEUTROPHIL [1]: 1062 CELLS/uL | BASOPHIL [1]: 0% | EOSINOPHIL [1]: 1% | ERYTHROCYTE COUNT [1]: 5.24 x10E6/uL | HEMATOCRIT [1]: 32.57% | HEMOGLOBIN [1]: 12.97 G/DL | LEUKOCYTE COUNT [1]: 9.2 x10E3/uL | LYMPHOCYTE [1]: 85.67% | MEAN CORPUSCULAR HEMOGLOBIN [1]: 24.87 pg | MEAN CORPUSCULAR HEMOGLOBIN CONCENTRATION [1]: 39.93 G/DL | MEAN CORPUSCULAR VOLUME [1]: 62.17 fL | MONOCYTE [1]: 1.33% | NEUTROPHIL [1]: 12% | NUCLEATED RED BLOOD CELLS [1]: 0 /100WBC | PLATELET COUNT [1]: 984.33 x10E3/uL | ALANINE AMINOTRANSFERASE [1]: 52 u/L | ALBUMIN [1]: 4.67 G/DL | ALKALINE PHOSPHATASE [1]: 373 u/L | ASPARTATE AMINOTRANSFERASE [1]: 90 u/L | BLOOD UREA NITROGEN [1]: 15.33 mg/dL | CARBON DIOXIDE [1]: 31.33 mmol/L | CHLORIDE [1]: 100.33 MEQ/L | CHOLESTEROL [1]: 54 mg/dL | CREATINE PHOSPHOKINASE [1]: 434 u/L | CREATININE [1]: 0.24 mg/dL | GLUCOSE [1]: 159.67 mg/dL | LACTATE DEHYDROGENASE [1]: 385.67 u/L | LIPASE [1]: 12.33 u/L | PHOSPHORUS [1]: 15.13 mg/dL | POTASSIUM [1]: 6.75 MEQ/L | SODIUM [1]: 146.63 MEQ/L | TOTAL BILIRUBIN [1]: 0.3 mg/dL | TOTAL PROTEIN [1]: 6.5 G/DL | URIC ACID [1]: 2.2 mg/dL | ABSOLUTE BASOPHIL [2]: 0 CELLS/uL | ABSOLUTE EOSINOPHIL [2]: 44.33 CELLS/uL | ABSOLUTE LYMPHOCYTE [2]: 13110.67 CELLS/uL | ABSOLUTE MONOCYTE [2]: 225.33 CELLS/uL | ABSOLUTE SEGMENTED NEUTROPHIL [2]: 1586.33 CELLS/uL | BASOPHIL [2]: 0% | EOSINOPHIL [2]: 0.33% | ERYTHROCYTE COUNT [2]: 5.44 x10E6/uL | HEMATOCRIT [2]: 35.13% | HEMOGLOBIN [2]: 13.83 G/DL | LEUKOCYTE COUNT [2]: 14.97 x10E3/uL | LYMPHOCYTE [2]: 87.33% | MEAN CORPUSCULAR HEMOGLOBIN [2]: 25.4 pg | MEAN CORPUSCULAR HEMOGLOBIN CONCENTRATION [2]: 39.37 G/DL | MEAN CORPUSCULAR VOLUME [2]: 64.57 fL | MONOCYTE [2]: 1.33% | NEUTROPHIL [2]: 11% | NUCLEATED RED BLOOD CELLS [2]: 0 /100WBC | PLATELET COUNT [2]: 1247.33 x10E3/uL | ALANINE AMINOTRANSFERASE [2]: 51.67 u/L | ALBUMIN [2]: 4.23 G/DL | ALKALINE PHOSPHATASE [2]: 485 u/L | ASPARTATE AMINOTRANSFERASE [2]: 87 u/L | BLOOD UREA NITROGEN [2]: 14.67 mg/dL | CARBON DIOXIDE [2]: 28.67 mmol/L | CHLORIDE [2]: 102 MEQ/L | CHOLESTEROL [2]: 81 mg/dL | CREATINE PHOSPHOKINASE [2]: 255.33 u/L | CREATININE [2]: 0.2 mg/dL | GLUCOSE [2]: 140.33 mg/dL | LACTATE DEHYDROGENASE [2]: 340.33 u/L | LIPASE [2]: 9.67 u/L | PHOSPHORUS [2]: 12.73 mg/dL | POTASSIUM [2]: 7.04 MEQ/L | SODIUM [2]: 146.23 MEQ/L | TOTAL BILIRUBIN [2]: 0.23 mg/dL | TOTAL PROTEIN [2]: 6.03 G/DL | URIC ACID [2]: 1.43 mg/dL | ABSOLUTE BASOPHIL [3]: 0 CELLS/uL | ABSOLUTE EOSINOPHIL [3]: 0 CELLS/uL | ABSOLUTE LYMPHOCYTE [3]: 12003.67 CELLS/uL | ABSOLUTE MONOCYTE [3]: 90 CELLS/uL | ABSOLUTE SEGMENTED NEUTROPHIL [3]: 1073 CELLS/uL | BASOPHIL [3]: 0% | EOSINOPHIL [3]: 0% | ERYTHROCYTE COUNT [3]: 5.4 x10E6/uL | HEMATOCRIT [3]: 34.57% | HEMOGLOBIN [3]: 13.8 G/DL | LEUKOCYTE COUNT [3]: 13.17 x10E3/uL | LYMPHOCYTE [3]: 91% | MEAN CORPUSCULAR HEMOGLOBIN [3]: 25.6 pg | MEAN CORPUSCULAR HEMOGLOBIN CONCENTRATION [3]: 39.97 G/DL | MEAN CORPUSCULAR VOLUME [3]: 64 fL | MONOCYTE [3]: 0.67% | NEUTROPHIL [3]: 8.33% | NUCLEATED RED BLOOD CELLS [3]: 0 /100WBC | PLATELET COUNT [3]: 1261 x10E3/uL | ALANINE AMINOTRANSFERASE [3]: 42.67 u/L | ALBUMIN [3]: 4.27 G/DL | ALKALINE PHOSPHATASE [3]: 339.33 u/L | ASPARTATE AMINOTRANSFERASE [3]: 85.33 u/L | BLOOD UREA NITROGEN [3]: 16.67 mg/dL | CARBON DIOXIDE [3]: 32.67 mmol/L | CHLORIDE [3]: 104.67 MEQ/L | CHOLESTEROL [3]: 68.33 mg/dL | CREATINE PHOSPHOKINASE [3]: 102 u/L | CREATININE [3]: 0.21 mg/dL | GLUCOSE [3]: 147.67 mg/dL | LACTATE DEHYDROGENASE [3]: 96.33 u/L | LIPASE [3]: 8.67 u/L | PHOSPHORUS [3]: 14.27 mg/dL | POTASSIUM [3]: 7.04 MEQ/L | SODIUM [3]: 150.5 MEQ/L | TOTAL BILIRUBIN [3]: 0.2 mg/dL | TOTAL PROTEIN [3]: 6.33 G/DL | URIC ACID [3]: 1.7 mg/dL
